Values joined by “and” are separate entries in the source; they are usually repeats but may differ in a detail not shown here. Equal values may be shown once.
Legend:
Format in all cases: biochemical, Trichoderma atroviride
Chi18 model RNA [1] = experiment: Droplet Digital Polymerase Chain Reaction (ddPCR) Assay, Chi18; details: percent protection, pH 11.0, 30° C., 16 hours, n = 2
Experimental: (§1) The ddPCR assays measure RNA integrity by converting intact RNA to cDNA by reverse transcription, then performing digital PCR in thousands of nanoliter-sized droplets for each sample. PCR is performed within each droplet, which allows for more sensitive detection of subtle changes in RNA concentration compared to traditional PCR or qPCR. Additionally, primers/probes specific to the 5′ end of the RNA/cDNA transcript(s) are used to assess fragment integrity—e.g. degraded RNA will have fewer 5′ positive droplets. The BioRad QX200 Droplet Digital PCR System was used for the ddPCR workflow.
(§2) Basic assay procedure: RNA samples (Chi18 or FgenL fragments) were diluted to 25 fg/μL or 10 fg/μL, respectively, in 50 mM […] buffer pH 11.0. Amino acid stocks were made up in 50 mM CAPS buffer, pH 11.0 and subsequently re-adjusted to pH 11.0, post solubilization. Amino acid stocks were tested in a dose-response format to determine EC50. An amino acid dilution plate containing a ˜300 mM (or appropriate) top-concentration of amino acid in 50 mM CAPS buffer was serially (half-log) diluted for 10 times. 0.6 μL of this compound dilution plate was spotted into a 96-well PCR plate (Thermo). Sample RNAs were added (6 μL) and incubated with test amino acid as described below.
(§3) Degradation reaction: Treated RNAs were incubated for 16 hours at 30° C. for Chi18 samples or 44° C. for FgenL samples. Upon completion of the degradation reaction, cDNA was made from the intact RNA by Reverse Transcription and ddPCR run for each sample (96 well plates). Positive 5′ droplet values were divided by the total accepted droplet values for each sample and a ratio value generated for each sample.
(§4) EC50 was determined by using a four parameter logistic equation: Y=A+((B−A)/(1+(C/X)D)); where Y is percent protection, X is compound concentration, A and B are minimum and maximum asymptotes, respectively, C is EC50, and D is Hill slope.

FgenL model RNA = details: percent protection, pH 11.0, 44° C., 16 hours, n = 2
Experimental: as §1, §2, §3, §4

FgenL mRNA construct = experiment: Size Exclusion Base Hydrolysis Degradation Assay, FgenL; details: 25 mM amino acid; for T0 R1 peak area at 250 nm: FgenL 0.1 mg/mL, 50 mM CAPS, T=0, replicate 1; for T2 R1 peak area at 250 nm / T2 Avg, peak area as percentage of T=0 / T10 R1 peak area at 250 nm / T10 Avg, peak area as percentage of T=0 / T24 Avg, peak area as percentage of T=0 / T24 R1 peak area at 250 nm / T0 Avg, peak area as percentage of T=0: FgenL; for T2 R1 peak area at 250 nm / T2 Avg, peak area as percentage of T=0 / T10 R1 peak area at 250 nm / T10 Avg, peak area as percentage of T=0 / T24 Avg, peak area as percentage of T=0 / T24 R1 peak area at 250 nm: 50 mM CAPS pH 11, room temperature; for T2 R1 peak area at 250 nm / T2 Avg, peak area as percentage of T=0: 2 hrs; for T2 R1 peak area at 250 nm / T10 R1 peak area at 250 nm / T24 R1 peak area at 250 nm: replicate 1; for T10 R1 peak area at 250 nm / T10 Avg, peak area as percentage of T=0: 10 hrs; for T24 Avg, peak area as percentage of T=0 / T24 R1 peak area at 250 nm: 24 hrs; for T0 Avg, peak area as percentage of T=0: T=0 (reference)
Experimental: (§5) Basic assay procedure: RNA samples were diluted to 1.0 mg/mL in DNAase/RNAase free water. Amino acids were dissolved in water to a stock solution of 100 mM and a solution of 500 mM CAPS pH 11 was used. The two mRNA constructs tested were FgenL and Chi18. Each individual sample volume was 50 μL. To determine the amount of 1 M NaOH needed to adjust the final pH to 11.0 after the addition of all sample components, the sample volume was increased 100 fold (5 mL), the volume of 1 M NaOH recorded and this value was translated back down to the 50 μL sample volume.
(§6) The mRNA and amino acid were allowed to incubate for one hour prior to the addition of CAPS pH 11. All steps of the assay were conducted at room temperature.
(§7) Degradation reaction: After the CAPS addition, the samples were injected onto the Waters H-Class UPLC system to record the first timepoint, T=O. This resulting chromatogram was processed by integrating the area of absorbance at 250 nm for the mRNA construct. Immediately following this timepoint, the pH was adjusted to 11. Subsequent time points (2 hrs, 10 hrs, and 24 hrs) recorded the Absorbance Units (peak area) at 250 nm as a percentage of the peak area determined at T=O. Integration of the chromatogram for subsequent timepoints was conducted by analyzing the area of absorbance at 250 nm contained within the same time window in which the peak eluted in T=0 for the 100% intact mRNA.

Chi18 mRNA construct = experiment: Size Exclusion Base Hydrolysis Degradation Assay, Chi18; details: for T0 R1 peak area at 250 nm: Chi18 0.1 mg/mL, 25 mM amino acid, 50 mM CAPS, T=0, replicate 1; for T2 R1 peak area at 250 nm / T2 Avg, peak area as percentage of T=0 / T10 Avg, peak area as percentage of T=0 / T10 R1 peak area at 250 nm / T24 Avg, peak area as percentage of T=0 / T24 R1 peak area at 250 nm / T0 Avg, peak area as percentage of T=0: Chi18, 25 mM amino acid; for T2 R1 peak area at 250 nm / T2 Avg, peak area as percentage of T=0 / T10 Avg, peak area as percentage of T=0 / T10 R1 peak area at 250 nm / T24 Avg, peak area as percentage of T=0 / T24 R1 peak area at 250 nm: 50 mM CAPS pH 11, room temperature; for T2 R1 peak area at 250 nm / T2 Avg, peak area as percentage of T=0: 2 hrs; for T2 R1 peak area at 250 nm / T10 R1 peak area at 250 nm / T24 R1 peak area at 250 nm: replicate 1; for T10 Avg, peak area as percentage of T=0 / T10 R1 peak area at 250 nm: 10 hrs; for T24 Avg, peak area as percentage of T=0 / T24 R1 peak area at 250 nm: 24 hrs; for T0 Avg, peak area as percentage of T=0: T=0 (reference)
Experimental: as §5, §6, §7

Chi18 model RNA [2] = experiment: TapeStation Assay, Chi18 model RNA; design: Conc. chi18#1 / Conc. chi18#2: unit not given here; details: for % Control N = 1 / % Control N = 2 / % Control Avg.: Chi18 RNA, 20 mM amino acids, 50 mM CAPS pH 11, 50° C. 15 min; for % Control N = 1 / % Control N = 2: vs Time 0; for % Control Avg.: vs Time 0, Avg N=2; for Conc. chi18#1 / Conc. chi18#2: intact Chi18 RNA after 15 min at 50° C.; for Conc. chi18#1: 20 mM amino acids in 50 mM CAPS pH 11, run #1; for Conc. chi18#2: 20 mM amino acids in 50 mM CAPS pH 11, run #2
Experimental: These assays were performed with amino acids and compared to a no-degradation baseline control to gauge degree of protection imparted by the amino acid. Multiple functional assay approaches were used where differing endpoints were measured including a droplet digital PCR (ddPCR) assay where intact RNA sequence was quantitated, a size exclusion base hydrolysis degradation assay that used a size exclusion column to determine the degree of degradation occurring to an mRNA construct, and finally, a TapeStation assay that utilizes capillary electrophoresis and optical detection to measure intact RNA. […] Affinity selection by mass spectrometry (ASMS), native electrospray ionization mass spectrometry (nESI-MS) and nuclear magnetic resonance (NMR) may be used as several complementary approaches to ascertain compound binding to RNA. The latter techniques utilize MS to measure mass of bound compound alone (ASMS), or mass of RNA and bound compound (nESI-MS). The nESI-MS and NMR studies may be conducted to provide direct analytical quantification of resulting complex via measurement of mass (nESI-MS) or chemical shifts (NMR). The ASMS experiment is conducted to determine saturation binding of the compound to RNA where resulting apparent binding constants (KD,App) may be generated. Further descriptions of the functional and binding assays are provided in the section below.
In principle, samples are loaded to the instrument where electrophoresis separates component RNA's on the basis of mass, and subsequently analyzes these optically as they travel through the capillary.
RNA samples were diluted to the appropriate concentration to fall within the linear range of detection for the RNA ScreenTape Assay. Model Chi18 or FgenL RNAs were diluted to 50 ng/μL in 50 mM CAPS buffer pH 11. Amino acid stocks were made up in 50 mM CAPS pH 11 and re-adjusted to >pH 11 after solubilization. […] The samples were aliquoted to PCR tubes for each time point (Time 0 or 15 minutes). Degradation reaction: Samples were incubated at 50° C. for 0 to 15 minutes in a thermocycler, removed at the appropriate time point and placed on ice. Time 0 samples remained on ice.

SMILES	EC50 (Chi18 model RNA [1]) [mM]	EC50 (FgenL model RNA) [mM]	T24 Avg, peak area as percentage of T=0 (FgenL mRNA construct) [%]	T24 R1 peak area at 250 nm (FgenL mRNA construct)	T0 Avg, peak area as percentage of T=0 (FgenL mRNA construct) [%]	T10 Avg, peak area as percentage of T=0 (Chi18 mRNA construct) [%]	T10 R1 peak area at 250 nm (Chi18 mRNA construct)	T24 Avg, peak area as percentage of T=0 (Chi18 mRNA construct) [%]	T24 R1 peak area at 250 nm (Chi18 mRNA construct)	T0 Avg, peak area as percentage of T=0 (Chi18 mRNA construct) [%]	% Control N = 1 (Chi18 model RNA [2]) [%]	% Control N = 2 (Chi18 model RNA [2]) [%]	% Control Avg. (Chi18 model RNA [2]) [%]	Conc. chi18#1 (Chi18 model RNA [2])	Conc. chi18#2 (Chi18 model RNA [2])	T0 R1 peak area at 250 nm (FgenL mRNA construct)	T2 Avg, peak area as percentage of T=0 (FgenL mRNA construct) [%]	T2 R1 peak area at 250 nm (FgenL mRNA construct)	T10 Avg, peak area as percentage of T=0 (FgenL mRNA construct) [%]	T10 R1 peak area at 250 nm (FgenL mRNA construct)	also measured
N[C@@H](CS)C(=O)O [Cysteine]	> 30	> 30	0.0	0	100.0	0.0	0	0.0	0	100.0	4.5	3.5	4.0	2.39	1.85						T0 R1 peak area at 250 nm (FgenL mRNA construct; listed as Cys): 23851 and 18041; T2 R1 peak area at 250 nm (FgenL mRNA construct; listed as Cys): 17633 and 6085; T2 Avg, peak area as percentage of T=0 (FgenL mRNA construct; listed as Cys): 58.8% and 30.1%; T10 R1 peak area at 250 nm (FgenL mRNA construct; listed as Cys): 3767 and 0; T10 Avg, peak area as percentage of T=0 (FgenL mRNA construct; listed as Cys): 8.8% and 0.0%; T0 R1 peak area at 250 nm (Chi18 mRNA construct; listed as Cys): 39458 and 20358; T2 R1 peak area at 250 nm (Chi18 mRNA construct; listed as Cys): 25387 and 14715; T2 Avg, peak area as percentage of T=0 (Chi18 mRNA construct; listed as Cys): 60.4% and 61.4%
N[C@@H](CCC(=O)O)C(=O)O [Glutamic acid]	6.7	19	0.0	0	100.0	151.2	6324		0	100.0	76.0	94.5	85.3	40.5	50	14529	73.9	10330	39.7	8449	T0 R1 peak area at 250 nm (Chi18 mRNA construct): 19221; T2 Avg, peak area as percentage of T=0 (Chi18 mRNA construct): 92.8%; T2 R1 peak area at 250 nm (Chi18 mRNA construct): 16514
NC(=O)CC[C@H](N)C(=O)O [Glutamine]	8.8	> 30	0.0	0	100.0	0.0	0	0.0	0	100.0	15.9	17.8	16.8	8.46	9.42	15510	25.9	5779	0.0	0	T0 R1 peak area at 250 nm (Chi18 mRNA construct): 25301; T2 Avg, peak area as percentage of T=0 (Chi18 mRNA construct): 51.1%; T2 R1 peak area at 250 nm (Chi18 mRNA construct): 10030

Source: patent US20240122865A1, “Methods of Protecting RNA” (Pfizer Inc., priority 2021, published 2024)
